#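 Each compound was tested at five concentrations against cells in 96-well plates for 48 hours. GI50: concentration for 50% inhibition of growth. Definition used: TGI = concentration required for complete inhibition of growth.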
# What was measured:
# Experiment in all cases: NCI anticancer screen, dose series, 48 h
# [1] = test system: EKVX NSCLC
# [2] = test system: SN12C renal
# [3] = test system: OVCAR-4 ovarian
# [4] = test system: SK-MEL-5 melanoma
# [5] = test system: OVCAR-3 ovarian
# [6] = test system: M14 melanoma
# [7] = test system: LOX IMVI melanoma
# [8] = test system: OVCAR-8 ovarian
# [9] = test system: MOLT-4 leukemia
# [10] = test system: UACC-62 melanoma
# [11] = test system: SK-OV-3 ovarian
# [12] = test system: NCI/ADR-RES ovarian
# [13] = test system: U251 CNS
# [14] = test system: HOP-62 NSCLC
# [15] = test system: MALME-3M melanoma
# [16] = test system: IGROV1 ovarian
# [17] = test system: HL-60(TB) leukemia
# [18] = test system: T-47D breast
# [19] = test system: DU-145 prostate
# [20] = test system: RPMI-8226 leukemia
# [21] = test system: COLO 205 colon
# [22] = test system: SNB-75 CNS
# [23] = test system: UACC-257 melanoma
# [24] = test system: CCRF-CEM leukemia
# [25] = test system: HT29 colon
# [26] = test system: ACHN renal
# [27] = test system: NCI-H226 lung
# [28] = test system: UO-31 renal
# [29] = test system: HS 578T breast
structure (smiles),measurement,setting,value
Cc1nc2cc(-c3nn(C(C)C)c4ncnc(N)c34)ccc2o1,GI50,[1],14.1 nM
same,TGI,[1],286 nM
same,GI50,[2],9.83 nM
same,TGI,[2],> 10000 nM
same,GI50,[3],6.46 nM
same,TGI,[3],97 nM
same,GI50,[4],15.8 nM
same,TGI,[4],103 nM
same,GI50,[5],12.5 nM
same,TGI,[5],627 nM
same,GI50,[6],9.73 nM
same,TGI,[6],1210 nM
same,GI50,[7],14.1 nM
same,TGI,[7],660 nM
same,GI50,[8],19.8 nM
same,TGI,[8],431 nM
same,GI50,[9],20.6 nM
same,TGI,[9],> 3500 nM
same,GI50,[10],3.93 nM
same,TGI,[10],44 nM
same,GI50,[11],4.65 nM
same,TGI,[11],44.6 nM
same,GI50,[12],26.7 nM
same,TGI,[12],537 nM
same,GI50,[13],19.4 nM
same,TGI,[13],2350 nM
same,GI50,[14],21.8 nM
same,TGI,[14],415 nM
same,GI50,[15],3.47 nM
same,TGI,[15],78.7 nM
same,GI50,[16],3.41 nM
same,TGI,[16],55.9 nM
same,GI50,[17],68 nM
same,TGI,[17],> 10000 nM
same,GI50,[18],1.34 nM
same,TGI,[18],15.8 nM
same,GI50,[19],19.7 nM
same,TGI,[19],> 10000 nM
same,GI50,[20],3.42 nM
same,TGI,[20],385 nM
same,GI50,[21],12.1 nM
same,TGI,[21],870 nM
same,GI50,[22],3.09 nM
same,TGI,[22],39.1 nM
same,GI50,[23],11.1 nM
same,TGI,[23],112 nM
same,GI50,[24],27 nM
same,TGI,[24],> 10000 nM
same,GI50,[25],20.8 nM
same,TGI,[25],> 5340 nM
same,GI50,[26],10.2 nM
same,TGI,[26],1220 nM
same,GI50,[27],5.05 nM
same,TGI,[27],191 nM
same,GI50,[28],2.11 nM
same,TGI,[28],61.1 nM
same,GI50,[29],5.18 nM
same,TGI,[29],47.3 nM

# From PubChem BioAssay (NCI)
